Counter-ions that a name gives are not always drawn.
Tests used:
[1] = target: T1, recombinant human α1D receptor (Homo sapiens, UniProt P25100); assay: Adrenergic α1D selectivity binding assay ([3H]-prazosin); conditions: inhibition of [3H]-prazosin (0.3 nM) binding, HEK293 membranes; for IC50: read-out: α1 bind pIC50 (converted)
T1 construct: expressed in transfected cells; host or cells: HEK293
T1 sequence (P25100 1-572): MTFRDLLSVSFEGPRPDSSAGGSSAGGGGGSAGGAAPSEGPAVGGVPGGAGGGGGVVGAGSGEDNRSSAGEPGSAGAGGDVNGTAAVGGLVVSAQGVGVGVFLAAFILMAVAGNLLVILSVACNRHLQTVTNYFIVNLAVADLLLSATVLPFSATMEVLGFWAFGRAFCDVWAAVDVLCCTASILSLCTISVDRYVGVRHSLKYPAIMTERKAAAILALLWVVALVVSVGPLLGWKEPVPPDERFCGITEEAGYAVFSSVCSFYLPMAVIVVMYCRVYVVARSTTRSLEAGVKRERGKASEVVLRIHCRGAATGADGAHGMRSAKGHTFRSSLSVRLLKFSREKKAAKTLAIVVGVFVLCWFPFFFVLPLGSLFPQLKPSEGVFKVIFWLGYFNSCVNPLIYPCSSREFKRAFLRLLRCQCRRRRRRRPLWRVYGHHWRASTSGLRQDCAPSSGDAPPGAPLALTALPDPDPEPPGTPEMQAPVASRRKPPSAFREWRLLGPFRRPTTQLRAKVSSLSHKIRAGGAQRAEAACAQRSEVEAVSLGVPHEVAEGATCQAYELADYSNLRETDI
Description: Membranes were prepared from human embryonic kidney 293 (HEK293) cells expressing recombinant human α1D receptor. These were diluted in Assay Buffer (50 mM HEPES, 1 mM EDTA, 0.1% gelatin, pH 7.4) to provide a final concentration of membranes that gave a clear window between maximum and minimum specific binding.
(§1) Assays were performed in U-bottomed 96-well polypropylene plates. 10 μL [^3H]-prazosin (0.3 nM final concentration) and 10 μL of test compound (10× final concentration) were added to each test well. For each assay plate 8 replicates were obtained for [^3H]-prazosin binding in the presence of 10 μL vehicle (10% (v/v) DMSO in Assay Buffer; defining maximum binding) or 10 μL BMY7378 (10 μM final concentration; defining non-specific binding (NSB)). Membranes were then added to achieve a final volume of 100 μL. The plates were incubated for 2 hours at room temperature and then filtered onto PEI coated GF/B filter plates, pre-soaked for 1 hour in Assay Buffer, using a 96-well plate Tomtec cell harvester. Five washes with 250 μL wash buffer (50 mM HEPES, 1 mM EDTA, pH 7.4) were performed at 4° C. to remove unbound radioactivity. The plates were dried then sealed from underneath using Packard plate sealers and MicroScint-O (50 μL) was added to each well. The plates were sealed (TopSeal A) and filter-bound radioactivity was measured with a scintillation counter (TopCount, Packard BioScience) using a 3-minute counting protocol.
(§2) Total specific binding (B0) was determined by subtracting the mean NSB from the mean maximum binding. NSB values were also subtracted from values from all other wells. […] Data was fitted to a four parameter logistic equation to determine the compound potency, which was expressed as pIC50 (negative log molar concentration inducing 50% inhibition of [^3H]-prazosin binding).

[2] = target: T2, recombinant human adrenergic beta 1 receptors (Homo sapiens, UniProt P08588); assay: Adrenergic β1 selectivity binding assay ([125I]-Iodocyanopindolol); conditions: inhibition of [125I]-Iodocyanopindolol (0.036 nM) binding; for IC50: read-out: β1 bind p IC50 (converted)
T2 construct: purchased Euroscreen
T2 sequence (P08588 whole entry): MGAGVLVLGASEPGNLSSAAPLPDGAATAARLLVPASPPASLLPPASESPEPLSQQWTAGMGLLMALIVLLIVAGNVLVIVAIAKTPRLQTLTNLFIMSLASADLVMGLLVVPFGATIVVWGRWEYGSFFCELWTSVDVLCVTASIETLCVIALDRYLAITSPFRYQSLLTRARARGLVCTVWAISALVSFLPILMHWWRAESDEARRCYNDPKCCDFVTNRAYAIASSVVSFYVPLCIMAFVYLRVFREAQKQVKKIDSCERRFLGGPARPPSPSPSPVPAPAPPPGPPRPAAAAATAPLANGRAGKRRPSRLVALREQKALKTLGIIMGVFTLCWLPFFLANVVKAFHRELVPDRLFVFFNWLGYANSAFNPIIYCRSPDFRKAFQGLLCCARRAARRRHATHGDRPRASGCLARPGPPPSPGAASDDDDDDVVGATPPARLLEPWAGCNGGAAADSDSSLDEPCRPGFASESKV
Description: (§3) Membranes containing recombinant human adrenergic beta 1 receptors were obtained from Euroscreen. These were diluted in Assay Buffer (50 mM HEPES, 1 mM EDTA, 120 mM NaCl, 0.1% gelatin, pH 7.4) to provide a final concentration of membranes that gave a clear window between maximum and minimum specific binding.
as §1, with “[^125I]-Iodocyanopindolol (0.036” for “[^3H]-prazosin (0.3”, “[^125I]-Iodocyanopindolol” for “[^3H]-prazosin”, “Propranolol” for “BMY7378”, “EDTA, 120 mM NaCl,” for “EDTA,”
as §2, with “[^125I]-Iodocyanopindolol” for “[^3H]-prazosin”

[3] = target: T3, recombinant human Dopamine Subtype D2s receptors (Homo sapiens, UniProt P14416); assay: Dopamine D2 selectivity binding assay ([3H]-spiperone); conditions: inhibition of [3H]-spiperone (0.16 nM) binding; for IC50: read-out: D2 bind pIC50 (converted)
T3 construct: purchased Perkin Elmer
T3 sequence (P14416 1-414 isoform P14416-2): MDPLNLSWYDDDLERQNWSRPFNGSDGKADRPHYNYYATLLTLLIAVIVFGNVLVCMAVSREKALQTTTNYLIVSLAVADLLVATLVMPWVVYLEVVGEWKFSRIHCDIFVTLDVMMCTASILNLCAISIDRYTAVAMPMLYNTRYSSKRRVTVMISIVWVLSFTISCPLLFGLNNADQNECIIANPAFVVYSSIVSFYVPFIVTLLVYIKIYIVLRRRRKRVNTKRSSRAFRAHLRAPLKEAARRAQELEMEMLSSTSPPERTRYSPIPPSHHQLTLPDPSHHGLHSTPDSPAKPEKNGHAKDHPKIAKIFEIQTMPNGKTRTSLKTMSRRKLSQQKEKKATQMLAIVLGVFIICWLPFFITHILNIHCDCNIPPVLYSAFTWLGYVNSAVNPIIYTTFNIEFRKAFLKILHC
Description: as §3, with “Dopamine Subtype D2s” for “adrenergic beta 1”, “Perkin Elmer.” for “Euroscreen.”
Assays were performed in U-bottomed 96-well polypropylene plates. 30 μL [^3H]-spiperone (0.16 nM final concentration) and 30 μL of test compound (10× final concentration) were added to each test well. For each assay plate 8 replicates were obtained for [^3H]-spiperone binding in the presence of 30 μL vehicle (10% (v/v) DMSO in Assay Buffer; defining maximum binding) or 30 μL Haloperidol (10 μM final concentration; defining non-specific binding (NSB)). Membranes were then added to achieve a final volume of 300 μL. The plates were incubated for 2 hours at room temperature and then filtered onto PEI coated GF/B filter plates, pre-soaked for 1 hour in Assay Buffer, using a 96-well plate Tomtec cell harvester. Five washes with 250 μL wash buffer (50 mM HEPES, 1 mM EDTA, 120 mM NaCl, pH 7.4) were performed at 4° C. to remove unbound radioactivity. The plates were dried then sealed from underneath using Packard plate sealers and MicroScint-O (50 μL) was added to each well. The plates were sealed (TopSeal A) and filter-bound radioactivity was measured with a scintillation counter (TopCount, Packard BioScience) using a 3-minute counting protocol.
as §2, with “[^3H]-spiperone” for “[^3H]-prazosin”

SMILES	α1 bind pIC50 [1]	β1 bind p IC50 [2]	D2 bind pIC50 [3]	IC50 [1] [nM]	IC50 [2] [nM]	IC50 [3] [nM]
O=C(CCNCCc1ccc(O)cc1)N(CCNCCc1ccc(O)c2[nH]c(=O)sc12)C1CCCCC1 [Example 34, N-Cyclohexyl-N-(2-{[2-(4-hydroxy-2-oxo-2,3-dihydro-1,3-benzothiazol-7-yl)ethyl]amino}ethyl)-N^3-[2-(4-hydroxyphenyl)ethyl]-β-alaninamide bis-trifluoroacetic acid salt]	–	–	–	200	7940	398
O=C(CCNCCc1cccc(Cl)c1)N(CCNCCc1ccc(O)c2[nH]c(=O)sc12)C1Cc2ccccc2C1 [Example 42, N^3-[2-(3-Chlorophenyl)ethyl]-N^1-(2,3-dihydro-1H-inden-2-yl)-N^1-(2-{[2-(4-hydroxy-2-oxo-2,3-dihydro-1,3-benzothiazol-7-yl)ethyl]amino}ethyl)-β-alaninamide bis-trifluoroacetic acid salt]	–	–	–	63.1	1260	100
O=C(CCNCCc1ccccc1)N(CCNCCc1ccc(O)c2[nH]c(=O)sc12)C1CCCCCC1 [Example 98, N-Cycloheptyl-N-(2-{[2-(4-hydroxy-2-oxo-2,3-dihydro-1,3-benzothiazol-7-yl)ethyl]amino}ethyl)-N^3-(2-phenylethyl)-β-alaninamide dihydrobromide salt]	–	–	–	63.1	2000	158
CC(C)(CNCCC(=O)N(CCNCCc1ccc(O)c2[nH]c(=O)sc12)C1CCCC1)c1ccccc1 [Example 32, N-cyclopentyl-N-(2-{[2-(4-hydroxy-2-oxo-2,3-dihydro-1,3-benzothiazol-7-yl)ethyl]amino}ethyl)-N^3-(2-methyl-2-phenylpropyl)-β-alaninamide bis-trifluoroacetic acid salt]	–	–	–	398	7940	398
O=C(CCNCCc1cccc(Cl)c1)N(CCNCCc1ccc(O)c2[nH]c(=O)sc12)C1CCOCC1 [Example 22, N^3-[2-(3-Chlorophenyl)ethyl]-N-(2-{[2-(4-hydroxy-2-oxo-2,3-dihydro-1,3-benzothiazol-7-yl)ethyl]amino}ethyl)-N-(tetrahydro-2H-pyran-4-yl)-β-alaninamide bis-trifluoroacetic acid salt]	–	–	–	251	3980	7940

Results, then the compound that gave them:

α1 bind pIC50 [1]	β1 bind p IC50 [2]	D2 bind pIC50 [3]	IC50 [1] [nM]	IC50 [2] [nM]	IC50 [3] [nM]	SMILES
6.8	5.5	6.7	–	–	–	O=C(CCNCCc1cccc(F)c1)N(CCNCCc1ccc(O)c2[nH]c(=O)sc12)C1CCCCCC1 [Example 95, N-Cycloheptyl-N^3-[2-(3-fluorophenyl)ethyl]-N-(2-{[2-(4-hydroxy-2-oxo-2,3-dihydro-1,3-benzothiazol-7-yl)ethyl]amino}ethyl)-β-alaninamide dihydromide salt]
–	–	–	79.4	6310	200	CCCC(CCC)N(CCNCCc1ccc(O)c2[nH]c(=O)sc12)C(=O)CCNCCc1ccc(F)cc1 [Example 64, N^3-[2-(4-Fluorophenyl)ethyl]-N^1-(2-{[2-(4-hydroxy-2-oxo-2,3-dihydro-1,3-benzothiazol-7-yl)ethyl]amino}ethyl)-N^1-(1-propylbutyl)-β-alaninamide bis-trifluoroacetic acid salt]
–	–	–	251	5010	158	O=C(CCNCCc1cc(F)cc(F)c1)N(CCNCCc1ccc(O)c2[nH]c(=O)sc12)C1CCCCCC1 [Example 58, N^1-Cycloheptyl-N^3-[2-(3,5-difluorophenyl)ethyl]-N^1-(2-{[2-(4-hydroxy-2-oxo-2,3-dihydro-1,3-benzothiazol-7-yl)ethyl]amino}ethyl)-β-alaninamide bis-trifluoroacetic acid salt]
–	–	–	100	1260	79.4	CCCC[C@H](C)N(CCNCCc1ccc(O)c2[nH]c(=O)sc12)C(=O)CCNCCc1ccccc1 [Example 102, N-(2-{[2-(4-Hydroxy-2-oxo-2,3-dihydro-1,3-benzothiazol-7-yl)ethyl]amino}ethyl)-N-[(1S)-1-methylpentyl]-N^3-(2-phenylethyl)-β-alaninamide bis-trifluoroacetic acid salt]
–	–	–	100	794	398	O=C(CCNCCc1ccccc1)N(CCNCCc1ccc(O)c2[nH]c(=O)sc12)CC12CC3CC(CC(C3)C1)C2 [Example 59, N^1-(1-Adamantylmethyl)-N^1-(2-{[2-(4-hydroxy-2-oxo-2,3-dihydro-1,3-benzothiazol-7-yl)ethyl]amino}ethyl)-N^3-(2-phenylethyl)-β-alaninamide bis-trifluoroacetic acid salt]
–	–	–	158	6310	100	NS(=O)(=O)c1ccc(CCNCCC(=O)N(CCNCCc2ccc(O)c3[nH]c(=O)sc23)C2CCCCC2)cc1 [Example 69, N^3-{2-[4-(Aminosulfonyl)phenyl]ethyl}-N^1-cyclohexyl-N^1-(2-{[2-(4-hydroxy-2-oxo-2,3-dihydro-1,3-benzothiazol-7-yl)ethyl]amino}ethyl)-β-alaninamide bis-trifluoroacetic acid salt]

— US20100022491A1, “4-HYDROXY-2-OXO-2,3-DIHYDRO-1,3-BENZOTHIAZOL-7YL COMPOUNDS FOR MODULATION OF B2-ADRENORECEPTOR ACTIVITY” (ASTRAZENECA AB, priority 2006, published 2010)
